Measurements: article PMC7230911, “Meroterpenoids from the Brown Alga Cystoseira usneoides as Potential Anti-Inflammatory and Lung Anticancer Agents” (Marine Drugs, 2020)
Read-outs that look alike come from different tables or passages of the source.

Columns and labels:
[1] = test system: A549 human cancer cell line; settings: cited from earlier work
[2] = test system: LPS-stimulated RAW264.7 macrophages; settings: cited from earlier work
[3] = test system: several human cancer cell lines, including A549 cells; parameters: method as in PMID 19271727, PMID 22920243; settings: mean over several human cancer cell lines; cited from earlier work
A549 cells = assay: Cell cycle analysis of A549 cells by flow cytometry; type: cell-based, human; settings: 0.2 μg/mL, 24 h, positive control
Description: We next investigated whether the treatment with AMTs 1–8 caused any cell cycle-related event, which inhibit the viability of A549 cell line. Thus, the cells were treated for 24 h with the AMTs at concentrations of IC50 (Table 1), or with colchicine (at 0.2 μg/mL) as the positive control, and then subjected to flow cytometry analysis to evaluate the distribution of cells in the different phases of the cell cycle (Figure 5A).
Figure 5 Effects of meroterpenoids 1–8 on cell cycle distribution of A549 cells. Cells were incubated with IC50 doses of the compounds for 24 h. (A) Cells were harvested to measure the cell cycle distribution by flow cytometry. (B) Quantitative analysis of cell cycle distribution after treatment. Data represent mean ±SE from three independent experiments. * p < 0.05, ** p < 0.01, and *** p < 0.001 compared with the untreated group (control).
For cell cycle analysis by flow cytometry, A549 cells were seeded at 1 × 10^6 cells/well in 6-well plates and incubated for 24 h followed by treatment with the AMTs, at concentration of IC50, and further incubation for 24 h. Colchicine (final concentration of 0.2 μg/mL) was used as positive control. Cells were harvested after trypsinization and washed once with PBS. Then, the cells were centrifuged at 1500 rpm for 5 min (25 °C), the pellet was fixed with 1 mL of ice-cold 70% ethanol, and the samples were stored at −4 °C overnight. Then the cells were washed with PBS and incubated in the darkness with PBS containing 5 mg/mL of RNase A for 48 h at 4 °C. Subsequently, 50 µL of propidium iodide (0.1 mg/mL) was added and the cells were incubated for 1 h at 4 °C. The relative DNA content per cell was analyzed using a Beckman Coulter Cytomics FC 500 MPL (Beckman Coulter Inc, San Diego, CA, USA). The data acquisition was performed with the DML program. The analysis of the acquired data was performed with the CXP cytometer.

[4] = test system: several human cancer cell lines, including A549 cell line; parameters: method as in PMID 22775218; settings: cited from earlier work

5β-hydroxyaplysin
IC50 ([1]; read-out: IC50 towards A549): 35.3 µM

5β-hydroxypalisadin B
production of NO, TNF-α, IL-6, IL-1β and COX-2, iNOS expression (in words) [2]: inhibit

C=C(C)[C@@H]1CCC(C)(O)[C@H](Br)CC[C@@]2(C)C(=C(C)CC[C@@H]2Br)Cc2cc(ccc2O)C(=O)O1 (stereo partly shown) [bromophycolide M]
IC50 [3]: 3.1 µM

C=C(C)[C@@H]1CCC(C)(O)[C@H](Br)CC[C@@]2(C)[C@H](Cc3cc(ccc3O)C(=O)O1)C(C)=CC[C@@H]2Br (stereo partly shown) [bromophycolide N]
IC50 [3]: 8.6 µM

CC1=CC[C@H](Br)[C@@]2(C)CC[C@@H](Br)C(C)(O)CC[C@@H](C(C)(C)Br)OC(=O)c3ccc(O)c(c3)C[C@H]12 (stereo partly shown) [bromophycolide O]
IC50 [3]: 9.7 µM

C=C1CC[C@H](Br)[C@@]2(C)CC[C@@H](Br)[C@@]3(C)CC[C@H](OC(=O)c4ccc(O)c(c4)C[C@H]12)C(C)(C)O3 [bromophycolide P]
IC50 [3]: 7.9 µM

CC1=C2Cc3cc(ccc3O)C(=O)O[C@H]3CC[C@@](C)(OC3(C)C)[C@H](Br)CC[C@]2(C)[C@@H](Br)CC1 [bromophycolide Q]
IC50 [3]: 2 µM

COc1cc2c(c(OC)c1OC)-c1ccc(OC)c(=O)cc1[C@@H](NC(C)=O)CC2 [colchicine, reference compound]
cells arrested in G2/M phase (A549 cells): 89.88%

C=C1C[C@H](O)[C@H](Br)C(C)(C)[C@@]12CCC(C)=C(Cl)C2 [elatol]
cell cycle effect (in words) [4]: cell cycle arrest in the G1 and the sub-G1 phases
IC50 ([1]; read-out: IC50 towards A549): 4.8 µM

CC(C)[C@@H]1CC=C[C@H]2[C@H]3[C@@](C)(C=CC(=O)[C@@]3(C)O)CC[C@]12CBr [sphaerococcenol A]
IC50 ([1]; read-out: IC50 growth of A549 cells): 3.7 µM

bromophycoic acid D
IC50 [3]: 6.8 µM

nerogioltriol
activation of NFκB and production of NO, TNF-α and COX-2 (in words) [2]: inhibit
